# Assay results taken from US20070027143A1, “Novel substituted 2,3-benzodiazepine derivatives” (priority 2003, published 2007).
row,SMILES,melting point [°C]
1,CC1=Cc2cc3c(cc2C(c2ccc(N)cc2)=NN1c1ncon1)OCO3.Cl,124 to 126
2,"Cc1nnc(N2N=C(c3ccc(N)cc3)c3cc4c(cc3C[C@H]2C)OCO4)s1 (hydrate or solvate) [Example 86, (R)-5-(4-Aminophenyl)-8-methyl-7-(5-methyl-1,3,4-thiadiazol-2-yl)-8,9-dihydro-7H-1,3-dioxolo-[4,5-h][2,3]benzodiazepine]",168 to 170
3,"CC1Cc2cc3c(cc2C(c2ccc(N)cc2)=NN1c1nncs1)OCO3 (racemic) (hydrate or solvate) [Example 83, (±)-5-(4-Aminophenyl)-8-methyl-7-(1,3,4-thiadiazol-2-yl)-8,9-dihydro-7H-1,3-dioxolo-[4,5-h][2,3]benzodiazepine]",192 to 194
4,"CC1Cc2cc3c(cc2C(c2ccc(N)cc2)=NN1c1nnc(-c2ccccc2)s1)OCO3 (racemic) (hydrate or solvate) [Example 91, (±)-5-(4-Aminophenyl)-7-(5-phenyl-1,3,4-thiadiazol-2-yl)-8-methyl-8,9-dihydro-7H-1,3-dioxolo-[4,5-h][2,3]benzodiazepine]",228 to 230
5,"CC(=O)Nc1ccc(C2=NN(c3nc(C)cs3)C(C)Cc3cc4c(cc32)OCO4)cc1 (racemic) (hydrate or solvate) [Example 121, (±)-5-(4-Acetylaminophenyl)-8-methyl-7-(4-methyl-thiazol-2-yl)-8,9-dihydro-7H-1,3-dioxolo-[4,5-h][2,3]benzodiazepine]",236 to 238
6,"CCc1nnc(N2N=C(c3ccc([N+](=O)[O-])cc3)c3cc4c(cc3CC2C)OCO4)s1 (racemic) [Example 30, (±)-7-(5-Ethyl-1,3,4-thiadiazol-2-yl)-8-methyl-5-(4-nitrophenyl) 8,9-dihydro-7H-1,3-dioxolo[4,5-h][2,3]benzodiazepine]",163 to 164
7,"CC1Cc2cc3c(cc2C(c2ccc([N+](=O)[O-])cc2)=NN1c1nnc(-c2ccccc2)s1)OCO3 (racemic) [Example 33, (±)-8-Methyl-5-(4-nitrophenyl)-7-(5-phenyl-1,3,4-thiadiazol-2-yl)-8,9-dihydro-7H-1,3-dioxolo[4,5-h][2,3]benzodiazepine]",210 to 212
8,"CC1Cc2cc3c(cc2C(c2ccc([N+](=O)[O-])cc2)=NN1c1nnc(CCl)s1)OCO3 (racemic) [Example 34, (±)-7-(5-Chloromethyl-1,3,4-thiadiazol-2-yl)-8-methyl-5-(4-nitrophenyl)-8,9-dihydro-7H-1,3-dioxolo[4,5-h][2,3]benzodiazepine]",210 to 211
9,"CC1Cc2cc3c(cc2C(c2ccc([N+](=O)[O-])cc2)=NN1c1nc(=O)n(C2CC2)s1)OCO3 (racemic) [Example 47, (±)-7-(2-Cyclopropyl-3-oxo-2,3-dihydro-1,2,4-thiadiazol-5-yl)-8-methyl-5-(4-nitrophenyl)-8,9-dihydro-7H-1,3-dioxolo[4,5-h][2,3]benzodiazepine]",246 to 247
10,"CC1Cc2cc3c(cc2C(c2ccc(N)cc2)=NN1c1nccs1)OCO3 (racemic) [Example 60, (±)-5-(4-Aminophenyl)-8-methyl-7-(2-thiazolyl)-8,9-dihydro-7H-1,3-dioxolo[4,5-h][2,3]benzodiazepine]",187 to 190
11,"Cc1csc(N2N=C(c3ccc(N)cc3)c3cc4c(cc3CC2C)OCO4)n1 (racemic) [Example 63, (±)-5-(4-Aminophenyl)-8-methyl-7-(4-methyl-thiazol-2-yl)-8,9-dihydro-7H-1,3-dioxolo-[4,5-h][2,3]benzodiazepine]",190 to 191
12,"Cc1cnc(N2N=C(c3ccc(N)cc3)c3cc4c(cc3CC2C)OCO4)s1 (racemic) [Example 64, (±)-5-(4-Aminophenyl)-8-methyl-7-(5-methyl-thiazol-2-yl)-8,9-dihydro-7H-1,3-dioxolo-[4,5-h][2,3]benzodiazepine]",165 to 167
13,"Cc1nc(N2N=C(c3ccc(N)cc3)c3cc4c(cc3CC2C)OCO4)sc1C (racemic) [Example 65, (±)-5-(4-Aminophenyl)-8-methyl-7-(4,5-dimethyl-thiazol-2-yl)-8,9-dihydro-7H-1,3-dioxolo-[4,5-h][2,3]benzodiazepine]",240 to 242
14,"CC1Cc2cc3c(cc2C(c2ccc(N)cc2)=NN1c1nc(-c2ccccc2)cs1)OCO3 (racemic) [Example 66, (±)-5-(4-Aminophenyl)-7-(4-phenyl-thiazol-2-yl)-8-methyl-8,9-dihydro-7H-1,3-dioxolo-[4,5-h][2,3]benzodiazepine]",221 to 223
15,"CCOC(=O)c1csc(N2N=C(c3ccc(N)cc3)c3cc4c(cc3CC2C)OCO4)n1 (racemic) [Example 67, (±)-5-(4-Aminophenyl)-7-(4-ethoxycarbonyl-thiazol-2-yl)-8-methyl-8,9-dihydro-7H-1,3-dioxolo-[4,5-h][2,3]benzodiazepine]",251 to 252
16,"CC1Cc2cc3c(cc2C(c2ccc(N)cc2)=NN1C1=NCCS1)OCO3 (racemic) [Example 68, (±)-5-(4-Aminophenyl)-7-(4,5-dihydro-thiazol-2-yl)-8-methyl-8,9-dihydro-7H-1,3-dioxolo-[4,5-h][2,3]benzodiazepine]",145 to 150

row,SMILES,melting point [°C]
1,"CC1Cc2cc3c(cc2C(c2ccc(N)cc2)=NN1C1=NC(=O)CS1)OCO3 (racemic) [Example 71, (±)-5-(4-Aminophenyl)-7-(4,5-dihydro-4-oxo-thiazol-2-yl)-8-methyl-8,9-dihydro-7H-1,3-dioxolo-[4,5-h][2,3]benzodiazepine]",218 to 220
2,"CC1SC(N2N=C(c3ccc(N)cc3)c3cc4c(cc3CC2C)OCO4)=NC1=O (racemic) [Example 72, (±)-5-(4-Aminophenyl)-7-(4,5-dihydro-5-methyl-4-oxo-thiazol-2-yl)-8-methyl-8,9-dihydro-7H-1,3-dioxolo-[4,5-h][2,3]benzodiazepine]",200 to 204
3,"CC1Cc2cc3c(cc2C(c2ccc(N)cc2)=NN1C1=NC(=O)CCS1)OCO3 (racemic) [Example 73, (±)-5-(4-Aminophenyl)-7-(5,6-dihydro-4-oxo-4H-1,3-thiazin-2-yl)-8-methyl-8,9-dihydro-7H-1,3-dioxolo-[4,5-h][2,3]benzodiazepine]",226 to 228
4,"Cc1cc(C2=NN(c3nccs3)C(C)Cc3cc4c(cc32)OCO4)ccc1N (racemic) [Example 75, (±)-5-(4-Amino-3-methylphenyl)-8-methyl-7-(2-thiazolyl)-8,9-dihydro-7H-1,3-dioxolo-[4,5-h][2,3]benzodiazepine]",225 to 227
5,"COc1ccc2c(c1)C(c1ccc(N)cc1)=NN(c1nccs1)C(C)C2 (racemic) [Example 76, (±)-1-(4-Aminophenyl)-4-methyl-8-methoxy-3-(2-thiazolyl)-4,5-dihydro-3H-[2,3]benzodiazepine]",105 to 107
6,"CC1Cc2ccc(Cl)cc2C(c2ccc(N)cc2)=NN1c1nccs1 (racemic) [Example 77, (±)-1-(4-Aminophenyl)-8-chloro-4-methyl-3-(2-thiazolyl)-4,5-dihydro-3H-[2,3]benzodiazepine]",104 to 107
7,"Cc1csc(N2N=C(c3ccc(N)cc3)c3cc(Cl)ccc3CC2C)n1 (racemic) [Example 78, (±)-1-(4-Aminophenyl)-8-chloro-4-methyl-3-(4-methyl-thiazol-2-yl)-4,5-dihydro-3H-[2,3]benzodiazepine]",173 to 175
8,"CC1Cc2ccc(Cl)cc2C(c2ccc(N)cc2)=NN1C1=NCCS1 (racemic) [Example 79, (±)-1-(4-Aminophenyl)-3-(4,5-dihydro-thiazol-2-yl)-8-chloro-4-methyl-4,5-dihydro-3H-[2,3]benzodiazepine]",213 to 216
9,"CC1Cc2ccc(Cl)cc2C(c2ccc(N)cc2)=NN1C1=NC(=O)CS1 (racemic) [Example 80, (±)-1-(4-Aminophenyl)-3-(4,5-dihydro-4-oxo-thiazol-2-yl)-8-chloro-4-methyl-4,5-dihydro-3H-[2,3]benzodiazepine]",226 to 228
10,"Cc1csc(N2N=C(c3ccc(N)cc3)c3cc(Cl)c(Cl)cc3CC2C)n1 (racemic) [Example 81, (±)-1-(4-Aminophenyl)-7,8-dichloro-3-(4-methyl-thiazol-2-yl)-4-methyl-4,5-dihydro-3H-[2,3]benzodiazepine]",182 to 184
11,"CC1Cc2cc3c(cc2C(c2ccc(N)cc2)=NN1C1=NCCO1)OCO3 (racemic) [Example 82, (±)-5-(4-Aminophenyl)-7-(4,5-dihydro-oxazol-2-yl)-8-methyl-8,9-dihydro-7H-1,3-dioxolo-[4,5-h][2,3]benzodiazepine]",166 to 167
12,"Cc1nnc(N2N=C(c3ccc(N)cc3)c3cc4c(cc3CC2C)OCO4)s1 (racemic) [Example 85, (±)-5-(4-Aminophenyl)-8-methyl-7-(5-methyl-1,3,4-thiadiazol-2-yl)-8,9-dihydro-7H-1,3-dioxolo-[4,5-h][2,3]benzodiazepine]",143 to 148
13,"CC1Cc2cc3c(cc2C(c2ccc(N)cc2)=NN1c1nnc(C2CC2)s1)OCO3 (racemic) [Example 87, (±)-5-(4-Aminophenyl)-7-(5-cyclopropyl-1,3,4-thiadiazol-2-yl)-8-methyl-8,9-dihydro-7H-1,3-dioxolo[4,5-h][2,3]benzodiazepine]",145 to 148
14,"CC1Cc2cc3c(cc2C(c2ccc(N)cc2)=NN1c1nnc(C(F)(F)F)s1)OCO3 (racemic) [Example 90, (±)-5-(4-Aminophenyl)-8-methyl-7-(5-trifluoromethyl-1,3,4-thiadiazol-2-yl)-8,9-dihydro-7H-1,3-dioxolo-[4,5-h][2,3]benzodiazepine]",216 to 218
15,"CC1Cc2cc3c(cc2C(c2ccc(N)cc2)=NN1C1=NN=C(NC2CC2)[SH]1C)OCO3 (racemic) [Example 92, (±)-5-(4-Aminophenyl)-7-(5-cyclopropylamino-methyl-1,3,4-thiadiazol-2-yl)-8-methyl-8,9-dihydro-7H-1,3-dioxolo[4,5-h][2,3]benzodiazepine]",135 to 138
16,"CC1Cc2ccc(Cl)cc2C(c2ccc(N)cc2)=NN1c1nncs1 (racemic) [Example 93, (±)-1-(4-Aminophenyl)-8-chloro-4-methyl-3-(1,3,4-thiadiazol-2-yl)-4,5-dihydro-3H-[2,3]benzodiazepine]",125 to 128
